According to patent EP1235797B1, “ARALKYL-1,2-DIAMINES HAVING CALCIMIMETIC ACTIVITY AND PREPARATION MODE” (CENTRE NATIONAL DE LA RECHERCHE SCIENTIFIQUE (CNRS), priority 1999, dated 2001):

Assays:
[1] = biological target: T1, CaSR de rat (Rattus norvegicus, UniProt P48442); assay: Accumulation of tritiated inositol phosphates ([3H]IP) in transfected CHO(CaSR) cells; type: cell-based; settings: compound 10 µM; for activation at 10 µM: read-out: Accumulation d'(^3H)-IP % de la réponse 10mM Ca^2+ ± E.S.; for Accumulation d'(^3H)-IP % du taux basal. CHO (CaSR) / activity at 10 µM: basal level in presence of 2 mM Ca^2+ = 100 %; for activity at 10 µM: read-out: Accumulation d'(^3H)-IP % du taux basal. CHO (CaSR)
T1 construct: expressed in transfected cells; host or cells: CHO (Chinese hamster ovary) cells, line CHO(CaSR)
T1 sequence (P48442 20-1079): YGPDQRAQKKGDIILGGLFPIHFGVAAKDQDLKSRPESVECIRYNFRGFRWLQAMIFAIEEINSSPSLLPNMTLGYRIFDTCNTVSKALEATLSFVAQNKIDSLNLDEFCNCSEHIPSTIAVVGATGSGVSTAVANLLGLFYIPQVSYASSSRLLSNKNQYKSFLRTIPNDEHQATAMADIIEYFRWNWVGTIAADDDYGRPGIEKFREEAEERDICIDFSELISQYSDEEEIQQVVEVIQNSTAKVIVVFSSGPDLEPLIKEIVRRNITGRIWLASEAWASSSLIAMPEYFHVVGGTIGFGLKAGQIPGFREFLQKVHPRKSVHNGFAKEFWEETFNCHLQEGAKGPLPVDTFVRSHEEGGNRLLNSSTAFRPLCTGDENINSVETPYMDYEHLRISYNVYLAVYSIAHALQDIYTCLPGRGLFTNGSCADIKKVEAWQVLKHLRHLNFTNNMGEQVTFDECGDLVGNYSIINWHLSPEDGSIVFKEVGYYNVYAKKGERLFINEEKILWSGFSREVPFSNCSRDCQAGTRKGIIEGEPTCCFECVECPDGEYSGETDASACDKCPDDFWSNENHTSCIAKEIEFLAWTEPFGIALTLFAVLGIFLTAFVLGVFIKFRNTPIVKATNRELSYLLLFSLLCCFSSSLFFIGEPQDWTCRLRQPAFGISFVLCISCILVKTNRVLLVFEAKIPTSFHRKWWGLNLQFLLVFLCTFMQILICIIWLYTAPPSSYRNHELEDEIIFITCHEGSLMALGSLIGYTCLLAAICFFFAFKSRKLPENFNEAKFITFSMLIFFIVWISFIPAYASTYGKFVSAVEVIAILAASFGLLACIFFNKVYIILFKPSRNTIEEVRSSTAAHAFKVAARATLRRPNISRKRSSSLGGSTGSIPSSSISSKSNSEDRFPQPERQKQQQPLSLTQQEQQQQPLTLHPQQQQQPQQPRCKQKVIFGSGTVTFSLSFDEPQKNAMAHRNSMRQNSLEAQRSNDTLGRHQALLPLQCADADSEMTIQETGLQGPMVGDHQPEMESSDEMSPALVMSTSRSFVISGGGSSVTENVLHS
Description: L'ADN complémentaire codant pour le CaSR de rat a été isolé à partir d'une banque ADNc de striatum de rat (Ruat et al, Proc. Natl. Acad. Sci., 1995). Ce récepteur est identique au niveau de sa séquence en acides aminés à celui exprimé dans les autres tissus. Des cellules ovariennes de hamster chinois (CHO) transfectées exprimant le CaSR de rat (CHO(CaSR)) ont été caractérisées et les signaux chimiques (seconds messagers) induits par l'activation de ce récepteur ont été analysés. Ainsi, un test biochimique permettant de mesurer l'accumulation d'inositols phosphates tritiés [^3H]IP en réponse à l'activation du récepteur a été mis au point (Ruat et al, J. Biol. Chem., 1996; Ferry et al, Biochem. Biophys. Res. Commun., 1997).
L'activité calcimimétique des composés a été estimée en mesurant l'accumulation d'inositols phosphates tritiés induite par 10 µM de chacun des composés en présence de 2 mM de Ca^2+ dans les cellules CHO(CaSR) (Ferry et al, Biochem Biophys Res Commun, 1997).
Cette activation a été comparée à celle induite par le composé NPS-R- 568, un calcimimétique de référence et utilisé à une concentration de 10 µM (Tableau 1) (Ferry et al, Biochem Biophys Res Commun, 1997; Nemeth et al, Proc Natl Acad Sci USA, 1997).
Dans le tableau 1, l'activité calcimimétique des composés PHD est comparée à celle d'un composé de référence, le NPS-R-568 utilisé à la même concentration et dans les mêmes conditions expérimentales. Cette activité est exprimée en pourcentage de l'activité de 10 mM de Ca^2+. Les moyennes ± erreurs standards de 2 à 5 manipulations indépendantes sont indiquées. Les expériences ont été réalisées en présence de 2 mM de Ca^2+.
(§1) L'accumulation d'inositols phosphates tritiés est exprimée en pourcentage du taux de base observé en présence de 2 mM Ca^2+ (100 %) dans les cellules CHO(WT*) ou CHO(CaSR).

[2] = test system: cellules CHO(WT*); assay: Specificity control: [3H]IP accumulation in CHO(WT*) control cells transfected with the plasmid alone, not expressing CaSR; type: cell-based, hamster chinois; settings: compound 10 µM, basal level in presence of 2 mM Ca^2+ = 100 %; for activity at 10 µM: read-out: Accumulation d'(^3H)-IP % du taux basal. CHO (WT*)
Protocol: Les molécules PHD, utilisées à une concentration de 10 µM ne conduisent pas ou peu à l'accumulation d'[^3H]IP dans des cellules CHO(WT*) témoins ce qui suggère leur spécificité d'action vis-à-vis du CaSR (Tableau 2). Les cellules CHO(WT*) ont été tranfectées avec le plasmide seul et n'expriment pas le CaSR.
as §1

[3] = in presence of 2 mM Ca^2+, mean ± standard error of 2 to 5 independent experiments

activation at 10 µM [1, 3]	Compound	further results
30 ± 2%	COc1ccc(S(=O)(=O)NC(C)CNC(C)c2cccc3ccccc23)cc1 (stereo not drawn) [PHD 280]	–
80 ± 8%	CC(NCC(Cc1ccccc1)NCc1ccccc1)c1cccc2ccccc12 (stereo not drawn) [PHD 285]	–
45 ± 3%	COc1ccc(S(=O)(=O)NCCNC(C)c2cccc3ccccc23)cc1 (stereo not drawn) [PHD 288]	–
79 ± 10%	CC(NCC(Cc1ccccc1)NS(=O)(=O)c1ccccc1Cl)c1cccc2ccccc12 (stereo not drawn) [PHD 301]	Accumulation d'(^3H)-IP % du taux basal. CHO (CaSR) [1]: une forte accumulation; activity at 10 µM [1]: 304 ± 18%; Accumulation d'(^3H)-IP % du taux basal. CHO (WT*) [2]: peu ou pas d'accumulation; activity at 10 µM [2]: 119 ± 6%
29 ± 2%	CC(NCC(Cc1ccccc1)NS(=O)(=O)c1ccc(C(F)(F)F)cc1)c1cccc2ccccc12 (stereo not drawn) [PHD 304]	–
48 ± 9%	CC(NCC(Cc1ccccc1)NS(=O)(=O)c1ccccc1C(F)(F)F)c1cccc2ccccc12 (stereo not drawn) [PHD 306]	–
98 ± 8%	CC(NCC(Cc1ccccc1)NCc1ccccc1Cl)c1cccc2ccccc12 (stereo not drawn) [PHD 307, N^2-(2-Chlorobenzyl)-N^1-[1-(1-naphtyl)éthyl]-3-phénylpropane-1,2-diamine]	Accumulation d'(^3H)-IP % du taux basal. CHO (CaSR) [1]: une forte accumulation; activity at 10 µM [1]: 393 ± 28%; Accumulation d'(^3H)-IP % du taux basal. CHO (WT*) [2]: peu ou pas d'accumulation; activity at 10 µM [2]: 134 ± 11%
83 ± 4%	CC(NCC(Cc1ccccc1)NS(=O)(=O)c1cccc(Cl)c1)c1cccc2ccccc12 (stereo not drawn) [PHD 308]	Accumulation d'(^3H)-IP % du taux basal. CHO (CaSR) [1]: une forte accumulation; activity at 10 µM [1]: 314 ± 13%; Accumulation d'(^3H)-IP % du taux basal. CHO (WT*) [2]: peu ou pas d'accumulation; activity at 10 µM [2]: 124 ± 9%
78 ± 6%	CC(NCC(Cc1ccccc1)NCc1cccc(Cl)c1)c1cccc2ccccc12 (stereo not drawn) [PHD 312]	Accumulation d'(^3H)-IP % du taux basal. CHO (CaSR) [1]: une forte accumulation; activity at 10 µM [1]: 383 ± 39%; Accumulation d'(^3H)-IP % du taux basal. CHO (WT*) [2]: peu ou pas d'accumulation; activity at 10 µM [2]: 121 ± 6%
78 ± 1%	CC(NCC(Cc1ccccc1)NS(=O)(=O)c1cccs1)c1cccc2ccccc12 (stereo not drawn) [PHD 316]	–
29 ± 13%	CC(NS(=O)(=O)c1ccc2ccccc2c1)c1cccc2ccccc12 (stereo not drawn) [PHD 317]	–
34 ± 2%	CC(NCC(Cc1ccccc1)NS(=O)(=O)c1ccc2ccccc2c1)c1cccc2ccccc12 (stereo not drawn) [PHD 318]	–
31 ± 7%	CC(NCC(Cc1ccccc1)NS(=O)(=O)c1cccc2ccccc12)c1cccc2ccccc12 (stereo not drawn) [PHD 319]	–
95 ± 4%	CC(NCC(Cc1ccccc1)NCc1ccc(F)cc1)c1cccc2ccccc12 (stereo not drawn) [PHD 320]	–
97 ± 13%	COc1ccc(S(=O)(=O)NC(CNC(C)c2cccc3ccccc23)Cc2ccccc2)cc1OC (stereo not drawn) [PHD 321, N^2(3,4-diméthoxybenzènesulfonyl)-N^1[1-(1-naphtyl)éthyl]-3-phénylpropane-1,2-diamine]	Accumulation d'(^3H)-IP % du taux basal. CHO (CaSR) [1]: une forte accumulation; activity at 10 µM [1]: 446 ± 22%; Accumulation d'(^3H)-IP % du taux basal. CHO (WT*) [2]: peu ou pas d'accumulation; activity at 10 µM [2]: 124 ± 4%
57 ± 6%	CC(NCC(Cc1ccccc1)NS(C)(=O)=O)c1cccc2ccccc12 (stereo not drawn) [PHD 322]	–
90 ± 8%	CC(NCC(Cc1ccccc1)NCc1ccccc1F)c1cccc2ccccc12 (stereo not drawn) [PHD 323]	–

Continued, compound first:

Compound	activation at 10 µM [1, 3]	further results
C[C@@H](NCC(Cc1ccccc1)NS(=O)(=O)c1ccc([N+](=O)[O-])cc1)c1ccccc1 (single isomer, unassigned) [PHD 127 A]	12 ± 5%	–
C[C@@H](NCC(Cc1ccccc1)NS(=O)(=O)c1ccc([N+](=O)[O-])cc1)c1ccccc1 (single isomer, unassigned) [PHD 127 B]	–	Accumulation d'(^3H)-IP % de la réponse 10mM Ca^2+ ± E.S. [1, 3]: 13 ± 3%
CC(NCC(Cc1ccccc1)NS(=O)(=O)c1ccc([N+](=O)[O-])cc1)c1ccccc1 (stereo not drawn) [PHD 87]	8 ± 4%	–
CC(NCC(N)Cc1ccccc1)c1ccccc1 (stereo not drawn) [PHD 90]	3 ± 2%	–
Cc1ccc(S(=O)(=O)NC(CNC(C)c2ccccc2)Cc2ccccc2)cc1 (stereo not drawn) [PHD 121]	23 ± 15%	–
CC(NCC(Cc1ccccc1)NS(=O)(=O)c1ccc([N+](=O)[O-])cc1)c1cccc2ccccc12 (stereo not drawn) [PHD 124]	27 ± 11%	–
CC(NCC(Cc1ccccc1)NS(=O)(=O)c1ccc(N)cc1)c1ccccc1 (stereo not drawn) [PHD 125]	2 ± 4%	–
Cc1ccc(S(=O)(=O)NCC(NC(C)c2cccc3ccccc23)c2ccccc2)cc1 (stereo not drawn) [PHD 176 A]	6 ± 1%	–
Cc1ccc(S(=O)(=O)NC(CNC(C)c2cccc3ccccc23)c2ccccc2)cc1 (stereo not drawn) [PHD 176 B]	31 ± 3%	–
COc1cccc([C@@H](C)NC(CNS(=O)(=O)c2ccc(C)cc2)c2ccccc2)c1 (stereo partly drawn) [PHD 178 A]	6 ± 6%	–
COc1cccc([C@@H](C)NCC(NS(=O)(=O)c2ccc(C)cc2)c2ccccc2)c1 (stereo partly drawn) [PHD 178 B]	22 ± 10%	–
Cc1ccc(S(=O)(=O)NC(CNC(C)c2cccc3ccccc23)Cc2ccccc2)cc1 (stereo not drawn) [PHD 181]	68 ± 9%	–
COc1cccc([C@@H](C)NCC(Cc2ccccc2)NS(=O)(=O)c2ccc(C)cc2)c1 (stereo partly drawn) [PHD 182]	36 ± 12%	–
CC(NCC(Cc1ccccc1)NS(=O)(=O)c1ccccc1)c1cccc2ccccc12 (stereo not drawn) [PHD 202]	78 ± 10%	–
CC(NCC(Cc1ccccc1)NS(=O)(=O)c1ccc(Cl)cc1)c1cccc2ccccc12 (stereo not drawn) [PHD 203]	38 ± 20%	–
COc1ccc(S(=O)(=O)NC(CNC(C)c2cccc3ccccc23)Cc2ccccc2)cc1 (stereo not drawn) [PHD 206]	80 ± 12%	–
COc1ccc(S(=O)(=O)NC(CN[C@H](C)c2cccc(OC)c2)Cc2ccccc2)cc1 (stereo partly drawn) [PHD 217]	34 ± 5%	–
COc1ccc(S(=O)(=O)NC(CCc2ccccc2)CNC(C)c2cccc3ccccc23)cc1 (stereo not drawn) [PHD 218]	39 ± 1%	–
COc1ccc(S(=O)(=O)NC(CNC(C)c2cccc3ccccc23)Cc2ccccc2OC)cc1 (stereo not drawn) [PHD 230]	65 ± 2%	–
COc1ccc(S(=O)(=O)NC(CNC(C)c2cccc3ccccc23)Cc2cccc(C)c2OC)cc1 (stereo not drawn) [PHD 235]	37 ± 5%	–
COc1ccc(S(=O)(=O)NC(CNC(C)c2cccc3ccccc23)Cc2ccccc2Cl)cc1 (stereo not drawn) [PHD 242]	60 ± 4%	–
COc1ccc(CC(CNC(C)c2cccc3ccccc23)NS(=O)(=O)c2ccc(OC)cc2)cc1 (stereo not drawn) [PHD 267]	45 ± 1%	–
COc1ccc(S(=O)(=O)NC(CNC(C)c2cccc3ccccc23)Cc2ccc3c(c2)OCO3)cc1 (stereo not drawn) [PHD 271]	47 ± 2%	–
